Tests used:
[1] = system: CUG RNA foci in primary DM1 patient myoblasts; test: DOUBLE-cut screening: FISH staining of RNA foci in primary DM1 patient myoblasts; type: cell-based, human; settings: sgRNA pair RNP, 72 hrs post nucleofection; for % of CUG foci free nuclei (DNA-PKi): 3 μM Compound 6 for 48 hrs; for % of CUG foci free nuclei (Vehicle): DMSO 48 hrs
Outline: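 Primary DM1 patient myoblasts nucleofected with paired upstream/downstream sgRNA–SaCas9 RNPs (20 pmol protein, 60 pmol sgRNA each), then treated 48 hrs with DMSO or 3 μM DNA-PK inhibitor. At 72 hrs post nucleofection, CUG foci stained by Cy3-PNA(CAG)5 FISH with MBNL1 co-staining and quantified by high-content confocal imaging.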

[2] = system: CTG repeat expansion in the 3′ UTR of human DMPK gene; test: DOUBLE-cut screening: CTG repeat excision by loss-of-signal ddPCR in primary DM1 patient myoblasts; type: cell-based; settings: sgRNA pair RNP, mean of upstream and downstream ddPCR assays; for % of CTG repeat excision efficiency by ddPCR (DNA-PKi): 3 μM Compound 6 for 48 hrs; for % of CTG repeat excision efficiency by ddPCR (Vehicle): DMSO 48 hrs
Outline: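 Paired upstream/downstream sgRNAs, each as RNP with recombinant SaCas9 (20 pmol protein:60 pmol sgRNA), mixed 1:1 and nucleofected into primary DM1 myoblasts; cells then given DMSO or 3 μM DNA-PKi Compound 6 for 48 hrs. Genomic DNA taken 72 hrs post-nucleofection; excision is mean of upstream and downstream loss-of-signal ddPCR, normalized to DMPK exon 1 reference.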

| Substance | % of CUG foci free nuclei (DNA-PKi) [1] [%] | % of CUG foci free nuclei (Vehicle) [1] [%] | % of CTG repeat excision efficiency by ddPCR (DNA-PKi) [2] [%] | % of CTG repeat excision efficiency by ddPCR (Vehicle) [2] [%] |
| --- | --- | --- | --- | --- |
| SaU3 + SaD7: SaCas9 sgRNA pair, SEQ ID NOs: 3 and 15 (guide 1 ACTCCGGGGCCCCGTTGGAAGA; guide 2 GGGGCGCGGGATCCCCGAAAAA; listed as DNA, chemistry not fully specified) | 76.54 | 49.49 | 58.50 | 35.98 |
| SaU3 + SaD10: SaCas9 sgRNA pair, SEQ ID NOs: 3 and 18 (guide 1 ACTCCGGGGCCCCGTTGGAAGA; guide 2 TTGGGGGTCCTGTAGCCTGTCA; listed as DNA, chemistry not fully specified) | 86.88 | 75.19 | 69.50 | 44.56 |
| SaU3 + SaD11: SaCas9 sgRNA pair, SEQ ID NOs: 3 and 19 (guide 1 ACTCCGGGGCCCCGTTGGAAGA; guide 2 CAAAACGTGGATTGGGGTTGTT; listed as DNA, chemistry not fully specified) | 73.87 | 50.28 | 58.33 | 32.84 |
| SaU3 + SaD12: SaCas9 sgRNA pair, SEQ ID NOs: 3 and 20 (guide 1 ACTCCGGGGCCCCGTTGGAAGA; guide 2 TCAGTGCATCCAAAACGTGGAT; listed as DNA, chemistry not fully specified) | 83.21 | 74.46 | 59.96 | 38.05 |
| SaU3 + SaD13: SaCas9 sgRNA pair, SEQ ID NOs: 3 and 21 (guide 1 ACTCCGGGGCCCCGTTGGAAGA; guide 2 CCCAACAACCCCAATCCACGTT; listed as DNA, chemistry not fully specified) | 74.02 | 38.07 | 57.82 | 30.34 |
| SaU3 + SaD15: SaCas9 sgRNA pair, SEQ ID NOs: 3 and 23 (guide 1 ACTCCGGGGCCCCGTTGGAAGA; guide 2 GACAATAAATACCGAGGAATGT; listed as DNA, chemistry not fully specified) | 86.64 | 74.00 | 65.28 | 37.42 |
| SaU3 + SaD17: SaCas9 sgRNA pair, SEQ ID NOs: 3 and 25 (guide 1 ACTCCGGGGCCCCGTTGGAAGA; guide 2 TTTATTCGCGAGGGTCGGGGGT; listed as DNA, chemistry not fully specified) | 77.22 | 53.10 | 56.80 | 31.18 |
| SaU3 + SaD18: SaCas9 sgRNA pair, SEQ ID NOs: 3 and 26 (guide 1 ACTCCGGGGCCCCGTTGGAAGA; guide 2 GGGCCTTTTATTCGCGAGGGTC; listed as DNA, chemistry not fully specified) | 71.73 | 33.15 | 50.13 | 21.51 |
| SaU3 + SaD19: SaCas9 sgRNA pair, SEQ ID NOs: 3 and 27 (guide 1 ACTCCGGGGCCCCGTTGGAAGA; guide 2 AGGACCCCCACCCCCGACCCTC; listed as DNA, chemistry not fully specified) | 81.67 | 57.16 | 53.36 | 32.67 |
| SaU3 + SaD20: SaCas9 sgRNA pair, SEQ ID NOs: 3 and 28 (guide 1 ACTCCGGGGCCCCGTTGGAAGA; guide 2 AGATGGAGGGCCTTTTATTCGC; listed as DNA, chemistry not fully specified) | 83.99 | 72.56 | 64.44 | 40.12 |
| SaU4 + SaD3: SaCas9 sgRNA pair, SEQ ID NOs: 4 and 11 (guide 1 CCAGTTCACAACCGCTCCGAGC; guide 2 CAACGATAGGTGGGGGTGCGTG; listed as DNA, chemistry not fully specified) | 80.39 | 60.98 | 56.38 | 44.46 |
| SaU4 + SaD6: SaCas9 sgRNA pair, SEQ ID NOs: 4 and 14 (guide 1 CCAGTTCACAACCGCTCCGAGC; guide 2 CTTTTGCCAAACCCGCTTTTTC; listed as DNA, chemistry not fully specified) | 67.36 | 37.76 | 48.99 | 28.23 |
| SaU4 + SaD7: SaCas9 sgRNA pair, SEQ ID NOs: 4 and 15 (guide 1 CCAGTTCACAACCGCTCCGAGC; guide 2 GGGGCGCGGGATCCCCGAAAAA; listed as DNA, chemistry not fully specified) | 78.79 | 58.50 | 55.59 | 39.17 |
| SaU4 + SaD11: SaCas9 sgRNA pair, SEQ ID NOs: 4 and 19 (guide 1 CCAGTTCACAACCGCTCCGAGC; guide 2 CAAAACGTGGATTGGGGTTGTT; listed as DNA, chemistry not fully specified) | 78.29 | 58.71 | 54.55 | 36.98 |
| SaU4 + SaD12: SaCas9 sgRNA pair, SEQ ID NOs: 4 and 20 (guide 1 CCAGTTCACAACCGCTCCGAGC; guide 2 TCAGTGCATCCAAAACGTGGAT; listed as DNA, chemistry not fully specified) | 87.22 | 82.10 | 59.06 | 42.13 |
